Columns and labels:
recombinant 20α-HSD [1] = target: T1, recombinant 20α-HSD (Rattus norvegicus, UniProt P51652); experiment: Steady state kinetic constants (Lineweaver-Burk); type: biochemical; parameters: a DNA fragment of 1.2 Kb containing the entire coding region of 20α-HSD; GST (E. coli preparation only; removed with thrombin) (N, cleaved yes); made in house; host or cells: E. coli DH5α (pGEX-4T-2) and Sf-9 insect cells (baculovirus, pBlueBacIII); details: for concentration at which enzyme activity reached saturation / maximal activity: bacterially expressed enzyme, other reactant fixed (NADP 1 mM or 20α-hydroxyprogesterone 100 μM)
T1 sequence (P51652 1-323): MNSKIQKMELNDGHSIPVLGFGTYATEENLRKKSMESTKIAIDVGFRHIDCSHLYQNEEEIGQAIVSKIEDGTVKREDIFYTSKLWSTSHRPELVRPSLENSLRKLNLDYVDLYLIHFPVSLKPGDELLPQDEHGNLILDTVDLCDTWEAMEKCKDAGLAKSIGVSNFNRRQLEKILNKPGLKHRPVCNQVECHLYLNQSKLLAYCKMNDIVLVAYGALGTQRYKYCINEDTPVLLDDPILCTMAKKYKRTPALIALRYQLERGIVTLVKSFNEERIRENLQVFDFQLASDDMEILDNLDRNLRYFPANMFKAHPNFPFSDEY
Excerpt: The data were transformed into a reciprocal Lineweaver-Burk plot to calculate the Km and maximum velocity (Vmax) values.

recombinant 20α-HSD [2] = target: T1, recombinant 20α-HSD; experiment: Substrate specificity, oxidation/reduction of steroid substrates, spectrophotometric; type: biochemical; parameters: a DNA fragment of 1.2 Kb containing the entire coding region of 20α-HSD; GST (E. coli preparation only; removed with thrombin) (N, cleaved yes); made in house; host or cells: E. coli DH5α (pGEX-4T-2) and Sf-9 insect cells (baculovirus, pBlueBacIII); details: for Recombinant 20α HSD activity, expressed in E. coli: enzyme expressed in E. coli; for Recombinant 20α HSD activity, expressed in E. coli / Recombinant 20α HSD activity, expressed in Sf-9 cells: spectrophotometric; for Recombinant 20α HSD activity, expressed in Sf-9 cells: enzyme expressed in Sf-9 cells
Experimental: (§1) Enzyme activity of the recombinant 20α-HSD was determined by the rate of conversion of [1-2^3 H]-20α-hydroxy-pregn-4-ene-3-one (20α-hydroxprogesterone) to [1,2^3 H]progesterone in the presence of NADPH as described by Jones & Hsueh [J. Biol. Chem. 256:1248-1254 (1981)]. Enzyme activity was measured in this manner due to the fact that in an in vitro setting the reaction may be reversed, i.e. conversion of 20α-hydroxyprogesterone to progesterone. The assay mixtures (0.05 ml) contained 100 μM [1,2^3 H]hydroxyprogesterone [Dupont-New England Nuclear Research Products, Boston Mass.] […] Following incubation at 37° C. for 30 minutes, the [^3 H]progesterone content of each sample was determined after isolation by thin layer chromatography isolation. One unit of enzyme activity is defined as that amount of enzyme catalyzing the formation of 1 nmol of [^3 H]progesterone/minute from [1,2^3 H]hydroxyprogesterone. Specific activity is expressed as units/min/mg protein. The protein concentration was determined by the Bradford method using bovine serum albumin [Sigma Chemical Co, St. Louis, Mo.] as the standard [Bradford, Anal. Biochem. 72:248-254 (1976)]. […] Acta. 799:51-58 (1984); Noda et al., Biochim Biophys. Acta. 1079:112-118 (1991)].
To determine substrate specificity of recombinant 20α-HSD, the oxidation/reduction of several steroid substrates was also studied. […] Acta. 799:51-58 (1984); Noda et al., Biochim Biophys. Acta. 1079:112-118 (1991)]. […] However, compared to 20α-hydroxyprogesterone, 20α-HSD activity toward 17α-hydroxyprogesterone was lower, and its activity with progesterone was relatively higher.
The enzyme activity was measured spectrophotometrically. The data are expressed as the mean of duplicate determinations from three separate experiments. ND, not detected.

recombinant 20α-HSD [3] = target: T1, recombinant 20α-HSD; experiment: Aldo-keto (aldose/aldehyde) reductase activity, spectrophotometric NADPH oxidation at 340 nm; type: biochemical; parameters: a DNA fragment of 1.2 Kb containing the entire coding region of 20α-HSD; GST (E. coli preparation only; removed with thrombin) (N, cleaved yes); made in house; host or cells: E. coli DH5α (pGEX-4T-2) and Sf-9 insect cells (baculovirus, pBlueBacIII); details: for reduction of substrate by 20α-HSD (in words): purified recombinant 20α-HSD proteins; for activity relative to that observed with 20α-hydroxyprogesterone: maximal activity among aldose/aldehyde reductase substrates
Experimental: Aldo-keto reductase activity of the recombinant 20α-HSD was assayed spectrophotometrically by measuring the rate of oxidation of NADPH at 340 nm at 37° C. using a saturating concentration of benzaldehyde, 2-nitrobenzaldehyde, D,L -glyceraldehyde methylgloxal, 9,10-phenanthrequinone or ^D -galactose [Azhar et al., Biochemistry 26:7047-7057 (1987)].

[4] = substrate: NC(=O)c1ccc[n+]([C@@H]2O[C@H](COP(=O)([O-])OP(=O)(O)OC[C@H]3O[C@@H](n4cnc5c(N)ncnc54)[C@H](OP(=O)(O)O)[C@@H]3O)[C@@H](O)[C@H]2O)c1; experiment: purified protein, by the assay type
[5] = substrate: C[C@H](O)[C@H]1CC[C@H]2[C@@H]3CCC4=CC(=O)CC[C@]4(C)[C@H]3CC[C@]12C; experiment: Steady state kinetic constants (Lineweaver-Burk); type: biochemical, rat
recombinant 20α-HSD [6] = target: T1, recombinant 20α-HSD; experiment: 20α-HSD enzyme activity: conversion of [3H]20α-hydroxyprogesterone to [3H]progesterone; type: biochemical; parameters: a DNA fragment of 1.2 Kb containing the entire coding region of 20α-HSD; GST (E. coli preparation only; removed with thrombin) (N, cleaved yes); made in house; host or cells: E. coli DH5α (pGEX-4T-2) and Sf-9 insect cells (baculovirus, pBlueBacIII); details: for Mean Specific Activity ± SE: purified recombinant enzyme, Table 3
Experimental: as §1

[7] = other: enzyme expressed in E. coli, other reactant fixed (NADP 1 mM or 20α-hydroxyprogesterone 100 μM)
[8] = other: enzyme expressed in Sf-9 cells (baculovirus)

**Q.** Which results are given for `C[C@H](O)[C@H]1CC[C@H]2[C@@H]3CCC4=CC(=O)CC[C@]4(C)[C@H]3CC[C@]12C` [20α-Hydroxyprogesterone, 20α-hydroxy-pregn-4-ene-3-one]?
**A.** concentration at which enzyme activity reached saturation / maximal activity (recombinant 20α-HSD [1]): around 10 μM; Recombinant 20α HSD activity, expressed in E. coli (recombinant 20α-HSD [2]): 321 nmol/min/mg protein; Recombinant 20α HSD activity, expressed in Sf-9 cells (recombinant 20α-HSD [2]): 250 nmol/min/mg protein

**Q.** `O=Cc1ccc([N+](=O)[O-])cc1` [4-Nitrobenzaldehyde] was tested. Which “reduction of substrate by 20α-HSD (in words)” value (from here on “reduction of substrate”) (recombinant 20α-HSD [3]) did it give?
**A.** very efficiently

**Q.** For `CC(=O)[C@@]1(O)CC[C@H]2[C@@H]3CCC4=CC(=O)CC[C@]4(C)[C@H]3CC[C@@]21C` [17α-Hydroxyprogesterone], which “Recombinant 20α HSD activity, expressed in E. coli” value (recombinant 20α-HSD [2]) is on record?
**A.** 97 nmol/min/mg protein

**Q.** And the “Recombinant 20α HSD activity, expressed in Sf-9 cells” value (recombinant 20α-HSD [2])?
**A.** 85 nmol/min/mg protein

**Q.** `C[C@]12C[C@H](O)[C@H]3[C@@H](CCC4=CC(=O)CC[C@@]43C)[C@@H]1CC[C@@H]2C(=O)CO` [Corticosterone] was tested. Which “action of recombinant 20α-HSD on substrate (in words)” value (recombinant 20α-HSD [2]) did it give?
**A.** did not act on

**Q.** Which “concentration at which enzyme activity reached saturation / maximal activity” value (recombinant 20α-HSD [1]) does the source give for `NC(=O)c1ccc[n+]([C@@H]2O[C@H](COP(=O)([O-])OP(=O)(O)OC[C@H]3O[C@@H](n4cnc5c(N)ncnc54)[C@H](OP(=O)(O)O)[C@@H]3O)[C@@H](O)[C@H]2O)c1` [NADP] here?
**A.** about 100 μM

**Q.** Which “Recombinant 20α HSD activity, expressed in E. coli” value (recombinant 20α-HSD [2]) does the source give for `CC(=O)[C@H]1CC[C@H]2[C@@H]3CCC4=CC(=O)CC[C@]4(C)[C@H]3CC[C@]12C` [Progesterone] here?
**A.** 459 nmol/min/mg protein

**Q.** And the “Recombinant 20α HSD activity, expressed in Sf-9 cells” value (recombinant 20α-HSD [2])?
**A.** 352 nmol/min/mg protein

**Q.** Which “activity relative to that observed with 20α-hydroxyprogesterone” value (recombinant 20α-HSD [3]) does the source give for `O=Cc1ccccc1` [Benzaldehyde] here?
**A.** approximately a third

**Q.** And the “reduction of substrate” value (recombinant 20α-HSD [3])?
**A.** very efficiently

**Q.** Which “action of recombinant 20α-HSD on substrate (in words)” value (recombinant 20α-HSD [2]) does the source give for `C[C@]12CCC(=O)C[C@@H]1CC[C@@H]1[C@@H]2CC[C@]2(C)[C@@H](O)CC[C@@H]12` [5α-dihydrotestosterone] here?
**A.** did not act on

**Q.** For `O=CC(O)CO` (racemic) [D,L -Glyceraldehyde], which “activity relative to that observed with 20α-hydroxyprogesterone” value (recombinant 20α-HSD [3]) is on record?
**A.** approximately a third

**Q.** And the “reduction of substrate” value (recombinant 20α-HSD [3])?
**A.** very efficiently

B1: recombinant 20α-HSD (Rattus norvegicus) (protein)
chain: MNSKIQKMELNDGHSIPVLGFGTYATEENLRKKSMESTKIAIDVGFRHIDCSHLYQNEEEIGQAIVSKIEDGTVKREDIFYTSKLWSTSHRPELVRPSLENSLRKLNLDYVDLYLIHFPVSLKPGDELLPQDEHGNLILDTVDLCDTWEAMEKCKDAGLAKSIGVSNFNRRQLEKILNKPGLKHRPVCNQVECHLYLNQSKLLAYCKMNDIVLVAYGALGTQRYKYCINEDTPVLLDDPILCTMAKKYKRTPALIALRYQLERGIVTLVKSFNEERIRENLQVFDFQLASDDMEILDNLDRNLRYFPANMFKAHPNFPFSDEY
notes: a DNA fragment of 1.2 Kb containing the entire coding region of 20α-HSD; GST (E. coli preparation only; removed with thrombin) (N, cleaved yes); made in house; host or cells: E. coli DH5α (pGEX-4T-2) and Sf-9 insect cells (baculovirus, pBlueBacIII)
**Q.** For B1, which Km [4, 7] is on record?
**A.** 9.5 µM

**Q.** What about the Km [4, 8] of the same molecule?
**A.** 9.6 µM

**Q.** And the Km [5, 7]?
**A.** 5.9 µM

**Q.** And the Km [5, 8]?
**A.** 5.8 µM

B2: recombinant 20α-HSD expressed in E. coli: rat 20α-HSD expressed as GST fusion in E. coli DH5α, thrombin-cleaved and purified (protein, UniProt P51652 1-323, looked up)
Aldo-keto reductase family 1 …: MNSKIQKMELNDGHSIPVLGFGTYATEENLRKKSMESTKIAIDVGFRHIDCSHLYQNEEEIGQAIVSKIEDGTVKREDIFYTSKLWSTSHRPELVRPSLENSLRKLNLDYVDLYLIHFPVSLKPGDELLPQDEHGNLILDTVDLCDTWEAMEKCKDAGLAKSIGVSNFNRRQLEKILNKPGLKHRPVCNQVECHLYLNQSKLLAYCKMNDIVLVAYGALGTQRYKYCINEDTPVLLDDPILCTMAKKYKRTPALIALRYQLERGIVTLVKSFNEERIRENLQVFDFQLASDDMEILDNLDRNLRYFPANMFKAHPNFPFSDEY
modifications: expressed in E. coli; GST tag thrombin-cleaved
notes: rat 20α-HSD expressed as GST fusion in E. coli DH5α, thrombin-cleaved and purified
**Q.** Which “Vmax values higher than those of 20α-HSD expressed in insect cells” value (recombinant 20α-HSD [1]; similar assay conditions) does the source give for B2 here?
**A.** 20-30%

**Q.** And the “average specific activity of the purified preparations” value (recombinant 20α-HSD [6]; purified enzyme from bacterial expression system)?
**A.** 332 ±47 nmol/min/mg protein

**Q.** What about the “Mean Specific Activity ± SE” value (recombinant 20α-HSD [6]) of the same molecule?
**A.** 332 ± 47 nmol/min - mg protein

B3: recombinant 20α-HSD expressed in Sf-9 cells: rat 20α-HSD expressed in baculovirus-infected Sf-9 insect cells and purified (protein, UniProt P51652 1-323, looked up)
Aldo-keto reductase family 1 …: MNSKIQKMELNDGHSIPVLGFGTYATEENLRKKSMESTKIAIDVGFRHIDCSHLYQNEEEIGQAIVSKIEDGTVKREDIFYTSKLWSTSHRPELVRPSLENSLRKLNLDYVDLYLIHFPVSLKPGDELLPQDEHGNLILDTVDLCDTWEAMEKCKDAGLAKSIGVSNFNRRQLEKILNKPGLKHRPVCNQVECHLYLNQSKLLAYCKMNDIVLVAYGALGTQRYKYCINEDTPVLLDDPILCTMAKKYKRTPALIALRYQLERGIVTLVKSFNEERIRENLQVFDFQLASDDMEILDNLDRNLRYFPANMFKAHPNFPFSDEY
modifications: expressed in baculovirus Sf-9 cells
notes: rat 20α-HSD expressed in baculovirus-infected Sf-9 insect cells and purified
**Q.** B3 was tested. Which “Mean Specific Activity ± SE” value (recombinant 20α-HSD [6]) did it give?
**A.** 259 ± 36 nmol/min - mg protein

From patent US6001353A, “20α-alpha-hydroxy steroid dehydrogenase related material and methods” (priority 1997, dated 1999)
